Laboratory results taken from patent publication US8877748B2, “Heterocyclic fused anthraquinone derivatives, manufacturing method and pharmaceutical composition using thereof” (National Defense Medical Center, priority 2012, dated 2014).

How the values were obtained:
OVCAR-3 = test: NCI one-dose screening, ovarian cancer OVCAR-3; assay type: cell-based, human; conditions: 10 μM
HOP-62 = test: NCI one-dose screening, non-small cell lung cancer HOP-62; assay type: cell-based, human; conditions: 10 μM
LOX IMVI = test: NCI one-dose screening, melanoma LOX IMVI; assay type: cell-based, human; conditions: 10 μM
TK-10 = test: NCI one-dose screening, renal cancer TK-10; assay type: cell-based, human; conditions: 10 μM
[1] = test system: PC-3 prostate cancer cell line; test: SRB assay cell viability, PC-3 prostate cancer cell line; assay type: cell-based, human; conditions: Homo sapiens, PC-3 prostate cancer cell line, Table II prints no unit, μM printed, read-out: SRB assay: 50% inhibition of cancer cell proliferation of sample concentration (IC50) of PC-3 prostate cancer cell line
NCI-H522 = test: NCI one-dose screening, non-small cell lung cancer NCI-H522; assay type: cell-based, human; conditions: 10 μM
U251 = test: NCI one-dose screening, CNS cancer U251; assay type: cell-based, human; conditions: 10 μM
UACC-62 = test: NCI one-dose screening, melanoma UACC-62; assay type: cell-based, human; conditions: 10 μM
KM12 = test: NCI one-dose screening, colon cancer KM12; assay type: cell-based, human; conditions: 10 μM
NCI-H460 = test: NCI one-dose screening, non-small cell lung cancer NCI-H460; assay type: cell-based, human; conditions: 10 μM
PC-3 = test: NCI one-dose screening, prostate cancer PC-3; assay type: cell-based, human; conditions: 10 μM
RXF, 393 = test: NCI one-dose screening, renal cancer RXF, 393; assay type: cell-based, human; conditions: 10 μM
NCl/ADR-RES = test: NCI one-dose screening, breast cancer NCl/ADR-RES; assay type: cell-based, human; conditions: 10 μM; listed under Ovarian cancer
HCC-2998 = test: NCI one-dose screening, colon cancer HCC-2998; assay type: cell-based, human; conditions: 10 μM
BT-549 = test: NCI one-dose screening, breast cancer BT-549; assay type: cell-based, human; conditions: 10 μM
SNB-19 = test: NCI one-dose screening, CNS cancer SNB-19; assay type: cell-based, human; conditions: 10 μM
IGROV1 = test: NCI one-dose screening, ovarian cancer IGROV1; assay type: cell-based, human; conditions: 10 μM
T-47D = test: NCI one-dose screening, breast cancer T-47D; assay type: cell-based, human; conditions: 10 μM
OVCAR-4 = test: NCI one-dose screening, ovarian cancer OVCAR-4; assay type: cell-based, human; conditions: 10 μM
ACHN = test: NCI one-dose screening, renal cancer ACHN; assay type: cell-based, human; conditions: 10 μM
OVCAR-5 = test: NCI one-dose screening, ovarian cancer OVCAR-5; assay type: cell-based, human; conditions: 10 μM
NCI-H226 = test: NCI one-dose screening, non-small cell lung cancer NCI-H226; assay type: cell-based, human; conditions: 10 μM
CAKI-1 = test: NCI one-dose screening, renal cancer CAKI-1; assay type: cell-based, human; conditions: 10 μM
MALME-3M = test: NCI one-dose screening, melanoma MALME-3M; assay type: cell-based, human; conditions: 10 μM
PRMI-8226 cell line = test: NCI one-dose screening, leukemia PRMI-8226; assay type: cell-based, human; conditions: 10 μM
SK-MEL-5 = test: NCI one-dose screening, melanoma SK-MEL-5; assay type: cell-based, human; conditions: 10 μM
MDA-MB-231/ATCC = test: NCI one-dose screening, breast cancer MDA-MB-231/ATCC; assay type: cell-based, human; conditions: 10 μM
MDA, -MB-435 = test: NCI one-dose screening, breast cancer MDA, -MB-435; assay type: cell-based, human; conditions: 10 μM; listed under Melanoma
HS 578-T = test: NCI one-dose screening, breast cancer HS 578-T; assay type: cell-based, human; conditions: 10 μM; Breast cancer
OVCAR-8 = test: NCI one-dose screening, ovarian cancer OVCAR-8; assay type: cell-based, human; conditions: 10 μM
DU145 = test: NCI one-dose screening, prostate cancer DU145; assay type: cell-based, human; conditions: 10 μM
SN12C = test: NCI one-dose screening, renal cancer SN12C; assay type: cell-based, human; conditions: 10 μM
UO-31 = test: NCI one-dose screening, renal cancer UO-31; assay type: cell-based, human; conditions: 10 μM
SF-295 = test: NCI one-dose screening, CNS cancer SF-295; assay type: cell-based, human; conditions: 10 μM
SF-539 = test: NCI one-dose screening, CNS cancer SF-539; assay type: cell-based, human; conditions: 10 μM
HCT-116 = test: NCI one-dose screening, colon cancer HCT-116; assay type: cell-based, human; conditions: 10 μM
K562cell line = test: NCI one-dose screening, leukemia K562; assay type: cell-based, human; conditions: 10 μM
EKVX = test: NCI one-dose screening, non-small cell lung cancer EKVX; assay type: cell-based, human; conditions: 10 μM
HCT-15 = test: NCI one-dose screening, colon cancer HCT-15; assay type: cell-based, human; conditions: 10 μM
SNB-75 = test: NCI one-dose screening, CNS cancer SNB-75; assay type: cell-based, human; conditions: 10 μM
CCRF-CEM = test: NCI screening platform one-dose single concentration screening, leukemia CCRF-CEM; assay type: cell-based, human; conditions: 10 μM
human tumor cell lines = test: NCI one-dose screening, Mean / Delta / Range of growth percent over all tested cell lines; assay type: cell-based; conditions: 10 μM
HL-60, TB = test: NCI one-dose screening, leukemia HL-60, TB; assay type: cell-based, human; conditions: 10 μM
COLO 205 = test: NCI one-dose screening, colon cancer COLO 205; assay type: cell-based, human; conditions: 10 μM
M14 = test: NCI one-dose screening, melanoma M14; assay type: cell-based, human; conditions: 10 μM
MOLT-4 = test: NCI one-dose screening, leukemia MOLT-4; assay type: cell-based, human; conditions: 10 μM
NCI-H23 = test: NCI one-dose screening, non-small cell lung cancer NCI-H23; assay type: cell-based, human; conditions: 10 μM
HT29 = test: NCI one-dose screening, colon cancer HT29; assay type: cell-based, human; conditions: 10 μM
UACC-257 = test: NCI one-dose screening, melanoma UACC-257; assay type: cell-based, human; conditions: 10 μM
MDA-MB-468 = test: NCI one-dose screening, breast cancer MDA-MB-468; assay type: cell-based, human; conditions: 10 μM
SF-268 = test: NCI one-dose screening, CNS cancer SF-268; assay type: cell-based, human; conditions: 10 μM
SR = test: NCI one-dose screening, leukemia SR; assay type: cell-based, human; conditions: 10 μM
SK-MEL-2 = test: NCI one-dose screening, melanoma SK-MEL-2; assay type: cell-based, human; conditions: 10 μM
MCF7 = test: NCI one-dose screening, breast cancer MCF7; assay type: cell-based, human; conditions: 10 μM
786-O = test: NCI one-dose screening, renal cancer 786-O; assay type: cell-based, human; conditions: 10 μM
A549/ATCC = test: NCI one-dose screening, non-small cell lung cancer A549/ATCC; assay type: cell-based, human; conditions: 10 μM
HOP-92 = test: NCI one-dose screening, non-small cell lung cancer HOP-92; assay type: cell-based, human; conditions: 10 μM
SK-MEL-28 = test: NCI one-dose screening, melanoma SK-MEL-28; assay type: cell-based, human; conditions: 10 μM
NCI-H322M = test: NCI one-dose screening, non-small cell lung cancer NCI-H322M; assay type: cell-based, human; conditions: 10 μM; Non-small cell lung cancer

Question: Which “Growth Percent OVCAR-3” value (OVCAR-3) does the source give for O=C1c2ccccc2C(=O)c2c1cc(Nc1ccc(Cl)cc1)c1nsnc21 [C60, 4-(4-chloro-phenylamino)anthra[2,1-c] [1,2,5]thiadiazol-6,11-dione] here?
Answer: The value was 76.23%.

Question: And the “Growth Percent HOP-62” value (HOP-62)?
Answer: Its value is 71.23%.

Question: And the “Growth Percent LOX IMVI” value (LOX IMVI)?
Answer: The value was 27.09%.

Question: What about the “Growth Percent TK-10” value (TK-10) of the same molecule?
Answer: Its value is 100.37%.

Question: And the IC50 [1]?
Answer: The IC50 was 9.5 µM.

Question: What about the “Growth Percent NCI-H522” value (NCI-H522) of the same molecule?
Answer: The value was 49.77%.

Question: And the “Growth Percent U251” value (U251)?
Answer: Its value is 35.47%.

Question: And the “Growth Percent UACC-62” value (UACC-62)?
Answer: Its value is 64.65%.

Question: What about the “Growth Percent KM12” value (KM12) of the same molecule?
Answer: The value was 71.40%.

Question: And the “Growth Percent NCI-H460” value (NCI-H460)?
Answer: The value was 29.27%.

Question: What about the “Growth Percent PC-3” value (PC-3) of the same molecule?
Answer: Its value is 42.48%.

Question: What about the “Growth Percent RXF 393” value (RXF, 393) of the same molecule?
Answer: The value was 66.60%.

Question: What about the “Growth Percent NCI/ADR-RES” value (NCl/ADR-RES) of the same molecule?
Answer: The value was 55.91%.

Question: And the “Growth Percent HCC-2998” value (HCC-2998)?
Answer: The value was 91.26%.

Question: What about the “Growth Percent BT-549” value (BT-549) of the same molecule?
Answer: The value was 96.78%.

Question: What about the “Growth Percent SNB-19” value (SNB-19) of the same molecule?
Answer: Its value is 87.03%.

Question: And the “Growth Percent IGROV1” value (IGROV1)?
Answer: Its value is 55.18%.

Question: What about the “Growth Percent T-47D” value (T-47D) of the same molecule?
Answer: The value was 65.23%.

Question: And the “Growth Percent OVCAR-4” value (OVCAR-4)?
Answer: The value was 9.58%.

Question: What about the “Growth Percent ACHN” value (ACHN) of the same molecule?
Answer: The value was 70.10%.

Question: And the “Growth Percent OVCAR-5” value (OVCAR-5)?
Answer: The value was 121.21%.

Question: And the “Growth Percent NCI-H226” value (NCI-H226)?
Answer: Its value is 66.43%.

Question: What about the “Growth Percent CAKI-1” value (CAKI-1) of the same molecule?
Answer: The value was 58.59%.

Question: What about the “Growth Percent MALME-3M” value (MALME-3M) of the same molecule?
Answer: The value was 61.29%.

Question: And the “Growth Percent RPMI-8226” value (PRMI-8226 cell line)?
Answer: Its value is 36.51%.

Question: And the “Growth Percent SK-MEL-5” value (SK-MEL-5)?
Answer: The value was 29.92%.

Question: And the “Growth Percent MDA-MB-231/ATCC” value (MDA-MB-231/ATCC)?
Answer: The value was 57.00%.

Question: What about the “Growth Percent MDA-MB-435” value (MDA, -MB-435) of the same molecule?
Answer: Its value is 72.21%.

Question: And the “Growth Percent HS 578T” value (HS 578-T)?
Answer: The value was 76.50%.

Question: And the “Growth Percent OVCAR-8” value (OVCAR-8)?
Answer: Its value is 45.71%.

Question: What about the “Growth Percent DU145” value (DU145) of the same molecule?
Answer: Its value is 87.28%.

Question: And the “Growth Percent SN12C” value (SN12C)?
Answer: The value was 81.98%.

Question: And the “Growth Percent UO-31” value (UO-31)?
Answer: Its value is 49.04%.

Question: And the “Growth Percent SF-295” value (SF-295)?
Answer: The value was 78.76%.

Question: What about the “Growth Percent SF-539” value (SF-539) of the same molecule?
Answer: Its value is 69.85%.

Question: And the “Growth Percent HCT-116” value (HCT-116)?
Answer: The value was 40.51%.

Question: What about the “Growth Percent K562” value (K562cell line) of the same molecule?
Answer: Its value is 32.82%.

Question: What about the “Growth Percent EKVX” value (EKVX) of the same molecule?
Answer: Its value is 81.16%.

Question: And the “Growth Percent HCT-15” value (HCT-15)?
Answer: Its value is 37.73%.

Question: What about the “Growth Percent SNB-75” value (SNB-75) of the same molecule?
Answer: The value was 69.41%.

Question: And the “Growth Percent CCRF-CEM” value (CCRF-CEM)?
Answer: The value was 44.80%.

Question: And the “Growth Percent Delta” value (human tumor cell lines; delta over all cell lines)?
Answer: Its value is 53.61%.

Question: And the “Growth Percent Mean” value (human tumor cell lines; mean over all cell lines)?
Answer: The value was 63.19%.

Question: What about the “Growth Percent Range” value (human tumor cell lines; range over all cell lines) of the same molecule?
Answer: Its value is 111.63%.

Question: And the “Growth Percent HL-60(TB)” value (HL-60, TB)?
Answer: The value was 23.13%.

Question: What about the “Growth Percent COLO 205” value (COLO 205) of the same molecule?
Answer: The value was 94.87%.

Question: What about the “Growth Percent M14” value (M14) of the same molecule?
Answer: The value was 106.75%.

Question: What about the “Growth Percent MOLT-4” value (MOLT-4) of the same molecule?
Answer: The value was 11.82%.

Question: What about the “Growth Percent NCI-H23” value (NCI-H23) of the same molecule?
Answer: Its value is 58.67%.

Question: And the “Growth Percent HT29” value (HT29)?
Answer: The value was 91.07%.

Question: What about the “Growth Percent UACC-257” value (UACC-257) of the same molecule?
Answer: The value was 69.64%.

Question: And the “Growth Percent MDA-MB-468” value (MDA-MB-468)?
Answer: Its value is 32.52%.

Question: What about the “Growth Percent SF-268” value (SF-268) of the same molecule?
Answer: Its value is 63.91%.

Question: And the “Growth Percent SR” value (SR)?
Answer: Its value is 19.52%.

Question: And the “Growth Percent SK-MEL-2” value (SK-MEL-2)?
Answer: Its value is 84.09%.

Question: And the “Growth Percent MCF7” value (MCF7)?
Answer: Its value is 59.01%.

Question: And the “Growth Percent 786-0” value (786-O)?
Answer: The value was 95.95%.

Question: And the “Growth Percent A549/ATCC” value (A549/ATCC)?
Answer: Its value is 72.79%.

Question: What about the “Growth Percent HOP-92” value (HOP-92) of the same molecule?
Answer: The value was 88.03%.

Question: And the “Growth Percent SK-MEL-28” value (SK-MEL-28)?
Answer: The value was 77.13%.

Question: What about the “Growth Percent NCI-H322M” value (NCI-H322M) of the same molecule?
Answer: Its value is 91.20%.
